Assay: Water solubility of the p-toluenesulfonic acid salt at different pH
Assay type: physicochemical
Protocol: The water solubility of p-toluenesulfonic acid salt of the compound represented by the above formula (IA), namely 17-(cyclopropylmethyl)-6,7-didehydro-4,5α-epoxy-3,6,14-trihydroxy-N-[2-(3-phenyl-1,2,4-oxadiazol-5-yl) propan-2-yl]morphinan-7-carboxamide 4-methylbenzene sulfonic acid is more than 1,000 μg/mL in pH 1 or 4, but the water solubility in pH 7 decreases than the solubility in pH 1 or 4.

For `CC(C)(NC(=O)C1=C(O)[C@@H]2Oc3c(O)ccc4c3[C@@]23CCN(CC2CC2)[C@H](C4)[C@]3(O)C1)c1nc(-c2ccccc2)no1` [17-(cyclopropylmethyl)-6,7-didehydro-4,5α-epoxy-3,6,14-trihydroxy-N-[2-(3-phenyl-1,2,4-oxadiazol-5-yl)propan-2-yl]morphinan-7-carboxamide 4-methylbenzenesulfonic acid], the water solubility (pH 7, compared with pH 1 or 4) was “decreases” and the solubility (water, simulated gastric fluid, pH 1 or 4) was over 1000 µg/mL.

— patent publication US11116727B2, “Preparation containing 6,7-unsaturated-7-carbamoyl morphinan derivatives” (Shionogi & Co., Ltd., priority 2012, dated 2021)
